Broadly, the melting point is the temperature of the solid-liquid transition. Compound `O=C(O)c1csc(-c2ccc(Cl)s2)n1` returned a melting point of 247 to 249 °C. The compound `COc1ccc(C(=O)CBr)cc1OC` came in with a melting point of 83 to 85 °C. The compound `O=C(O)c1cccc(C2CCCOC2)c1` (stereo not given) showed a melting point of 82 to 84 °C. `CC(C)Oc1ccc(C(O)CN)cc1` (stereo not given) showed a melting point of 62 to 64 °C. `CNS(=O)(=O)c1ccc(Br)s1` gave a melting point of 59 to 61 °C. The compound `O=C(O)C1CC(c2ccc(Cl)cc2Cl)=NO1` (stereo not given) showed a melting point of 115 to 117 °C. The value for `Cc1cccc(NC(=O)C2CCNCC2)n1` was 175 to 177 °C; that for `C=CCn1c(S)nc2ccccc21` was 109 to 111 °C.

Turning to `O=Cc1coc(-c2ccccc2)n1`, the melting point was 90 to 92 °C. In the case of `Cc1cc(C(=O)O)c(O)c(S(N)(=O)=O)c1`, the melting point was in the range of 218 to 220 °C.

`NC(Cc1c[nH]c2cc(F)ccc12)C(=O)O` (stereo not given) returned a melting point of 283 to 285 °C. As to `COc1ccccc1C1(C)NC(=O)N(CC(=O)O)C1=O` (stereo not given), the melting point fell in the range of 179 to 181 °C. Regarding `S=c1cc[nH]c2ccccc12`, the melting point was 159 to 161 °C.

`Cc1cccc2c(CC(=O)O)c(-c3ccccc3)[nH]c12` returned a melting point of 159 to 161 °C. Compound `NNc1ccnc(F)c1` showed a melting point of 98 to 100 °C.

As to `O=C(O)COCc1nc2ccccc2c(=O)[nH]1`, the melting point lay within 259 to 261 °C.

As for `O=C(NCCc1ccccn1)OCC(F)(F)F`, the melting point was in the range of 59 to 61 °C. Turning to `COc1ccc(-c2csc(N)n2)cc1C`, the melting point fell in the range of 179 to 181 °C. Compound `O=C(O)c1nn(-c2c(Cl)cc(Cl)cc2Cl)cc1O` came in with a melting point of 194 to 196 °C. As for `O=C(O)CSc1ccccc1F`, the melting point lay within 80 to 82 °C. Then `Nc1cccc(Cl)c1-n1cncn1`, with 122 to 124 °C. The compound `CC(Cl)C(=O)Nc1ccc(S(=O)(=O)N2CCCCC2)cc1` (stereo not given) had a melting point of 130 to 135 °C. Compound `CC(Sc1ccc(C#N)cc1)C(=O)O` (stereo not given) yielded a melting point of 114 to 116 °C. Then `CN1C(=O)C(C#N)=C(N)C12CCCC2`, with 290 to 292 °C. The compound `CC(=O)NCCc1ccc(C(=O)O)cc1` showed a melting point of 175 to 177 °C. For the compound `Cn1cc(S(=O)(=O)Cl)cc1C(=O)O`, the melting point lay in the range of 164 to 166 °C. As to `CC(C)(C)OC(=O)N[C@H]1C[C@H](N)C1`, the melting point was 60 to 62 °C.

For the compound `COc1cc(C=O)c([N+](=O)[O-])cc1OCc1ccccc1`, the melting point fell in the range of 130 to 132 °C.

`COc1ccccc1NCCC(N)=O` displayed a melting point of 94 to 96 °C. The compound `O=S1(=O)N=C2CCCCCN2C(CCl)N1` (stereo not given) returned a melting point of 181 to 183 °C. For `Nc1nncc(-c2ccc(F)cc2)n1`, the melting point lay within 248 to 250 °C.

`Clc1ncnc2c(Br)cccc12` registered a melting point of 159 to 161 °C. In turn, `CC(O)c1cn(-c2ccccc2)nn1` (stereo not given) yielded a melting point of 75 to 77 °C.

`Cc1noc2nc(-c3cccc(Cl)c3)cc(C(=O)O)c12` showed a melting point of 239 to 241 °C. As to `NCc1ccc(-c2ccncc2)cc1`, the melting point fell in the range of 64 to 66 °C.

`CC(C)OCc1cc(C(=O)O)ccc1F` returned a melting point of 84 to 86 °C.

In turn, `N#Cc1ccc(N2CCCC2=O)cc1` returned a melting point of 106 to 108 °C. The compound `CC1CCCN(S(=O)(=O)c2ccc(N)cc2)C1` (stereo not given) showed a melting point of 129 to 131 °C. Turning to `O=C1CCC(c2ccccc2)N1` (stereo not given), the melting point fell in the range of 97 to 99 °C. As for `CS(=O)(=O)Cc1ccc(F)cc1CN`, the melting point was in the range of 77 to 79 °C. The value for `CC(C)(C)c1nc2ccc(S(=O)(=O)Cl)cc2s1` was 122 to 124 °C; that for `NC(=O)c1cc(N)ccc1F` was 137 to 139 °C; that for `O=C(O)c1cccc(S(=O)(=O)N2CCc3sccc3C2)c1` was 207 to 209 °C.

For the compound `N#Cc1ccccc1CS(=O)(=O)Cl`, the melting point fell in the range of 85 to 87 °C. Compound `N#CCOc1ccc(/C=C/C(=O)O)cc1` showed a melting point of 214 to 216 °C. The value for `Nc1ccc2[nH]c(=O)c(=O)[nH]c2c1` was 352 to 354 °C. `O=S(=O)(c1ccc(S)cc1)C(F)(F)F` displayed a melting point of 116 to 118 °C.

On to `Sc1nnc(CN2CCCC2)n1-c1ccc(Cl)cc1`, for which the melting point was 260 to 262 °C. For the compound `COC(=O)c1cc(OC)ccn1`, the melting point is 43 to 45 °C. Regarding `O=C1C2C3C=CC(C3)C2C(=O)N1c1cccc(Br)c1` (stereo not given), the melting point was 192 to 194 °C. As for `CS(=O)(=O)c1cc(C#N)ccn1`, the melting point was 143 to 145 °C. Regarding `CN(C)c1ccc(C=O)s1`, the melting point is 65 to 67 °C.

In turn, `Cc1c(NC(=O)C(C)Sc2nnc(N)s2)c(=O)n(-c2ccccc2)n1C` (stereo not given) yielded a melting point of 143 to 147 °C.

Regarding `COC(=O)C(C)Oc1ccc(F)cc1Br` (stereo not given), the melting point was in the range of 38 to 40 °C.

`CS(=O)(=O)N1CCCC1C(=O)O` (stereo not given) showed a melting point of 52 to 54 °C. For `O=C(O)CSCC(=O)N1CCOCC1`, the melting point was in the range of 119 to 121 °C. In turn, `Nc1cc(C(F)(F)F)ccc1Oc1ccc(Br)cc1` had a melting point of 19 to 21 °C. For `Cc1cc(Cl)c(S(=O)(=O)Cl)cc1[N+](=O)[O-]`, the melting point was in the range of 129 to 131 °C. Then `O=C(O)c1ccc(N2CCc3ccccc3C2)cc1`, with 209 to 211 °C.

`O=C(O)C1CCN(C2=NS(=O)(=O)c3ccccc32)CC1` displayed a melting point of 279 to 281 °C. Then `CCNc1ccc(S(=O)(=O)N2CCOCC2)cc1N`, with 188 to 190 °C; and `COc1ncccc1NC(=O)OCC(F)(F)F`, with 44 to 46 °C. Consider `NCc1nnc(-c2cccc(Br)c2)o1`, for which the melting point was in the range of 98 to 100 °C.

`CNc1c(F)cccc1C(N)=O` had a melting point of 186 to 188 °C. As to `CCOCCCNC(=O)CC#N`, the melting point lay in the range of 45 to 49 °C. Regarding `O=C(O)c1cn(-c2ccccc2)nc1-c1ccc(Br)cc1`, the melting point was in the range of 262 to 264 °C.

`Nc1ccc(Cl)c(CO)n1` yielded a melting point of 147 to 149 °C. Turning to `O=C(O)c1ccccc1NS(=O)(=O)c1ccc2[nH]c(=O)[nH]c2c1`, the melting point fell in the range of 225 to 227 °C. Take `O=C(O)c1cc(Cl)cc(Br)c1O`: the melting point fell in the range of 214 to 216 °C. Take `Cc1nn(-c2ccccc2)c(C)c1NC(=O)CCl`: the melting point was in the range of 149 to 151 °C. Then `NS(=O)(=O)c1ccc(C(=O)O)cc1F`, with 274 to 276 °C.

`CC(=O)c1ccc2[nH]c(=O)[nH]c2c1` had a melting point of 264 to 266 °C.

The compound `Cc1ccc2c(c1)C(=O)N(CCCC(=O)O)C2=O` displayed a melting point of 239 to 241 °C.

Consider `CC(Oc1ccc(Cl)cc1Br)C(=O)O` (stereo not given), for which the melting point lay in the range of 122 to 124 °C. Compound `NC(=O)CCCCCl` displayed a melting point of 76 to 78 °C. Take `O=C(O)c1occc1-c1ccc(F)cc1`: the melting point lay in the range of 147 to 149 °C. Turning to `NNC(=O)c1cc(Br)c[nH]1`, the melting point was 215 to 219 °C. In turn, `Nc1cc(-c2ccsc2)n[nH]1` registered a melting point of 127 to 129 °C. Then `O=C(O)c1ccc(-n2nnc3ccccc32)cc1`, with 308 to 310 °C. As for `Cc1ccc(CNc2ccc3[nH]c(=O)[nH]c3c2)cc1`, the melting point fell in the range of 271 to 273 °C. In turn, `O=C(CCl)Nc1ccc([N+](=O)[O-])cc1Br` returned a melting point of 165 to 167 °C. The value for `CC(C)(C(=O)O)c1cccc(Cl)c1` was 65 to 67 °C; that for `COc1ccc(OC)c(-c2cc(C(=O)O)no2)c1` was 192 to 194 °C; that for `Nc1cc2c(cc1N)OCCCO2` was 122 to 124 °C. The value for `O=C(O)c1c[nH]c(C(=O)N2CCCC2)c1` was 264 to 266 °C; that for `CC1=NN(c2ccc(Cl)nn2)C(=O)C1` was 229 to 231 °C; that for `Cn1c(=O)c2sccc2n2c(CCl)nnc12` was 244 to 246 °C. For `CC(C)(C)OC(=O)N1CCC(CC(=O)O)CC1`, the melting point was 98 to 100 °C.

`Cn1cc(CCC(=O)O)cn1` displayed a melting point of 137 to 139 °C.

In the case of `CNCc1ccc(OC)c(O)c1`, the melting point lay within 141 to 143 °C.

Compound `Nc1ccc2[nH]c(=O)sc2c1` displayed a melting point of 221 to 223 °C. `COc1ccc2c(c1)C(=O)CCC2` showed a melting point of 55 to 59 °C. The compound `O=C(O)c1ccc(-n2cnnn2)cc1Cl` came in with a melting point of 179 to 181 °C. Compound `CN1CC(=O)Nc2ccc(Cl)nc21` displayed a melting point of 233 to 235 °C. As to `Cc1nn(Cc2c(Cl)cccc2Cl)c(Cl)c1C(=O)O`, the melting point was in the range of 187 to 189 °C. In the case of `COc1ccc(Cn2c(N)nc3ccccc32)cn1`, the melting point lay within 173 to 175 °C.

`COc1ccc(COc2cccc(F)c2)cc1N` gave a melting point of 57 to 59 °C. `Cc1nc2c(c(C)nn2C)c(C)c1CC(=O)O` displayed a melting point of 245 to 247 °C. As to `O=Cc1cn(-c2ccc(Cl)c(Cl)c2)nn1`, the melting point is 175 to 177 °C. Regarding `Cc1ccc2c(c1)c(C=O)c(C)n2C`, the melting point was in the range of 104 to 106 °C. With `O=C(O)C(=Cc1cccnc1)NC(=O)c1ccccc1`, the melting point lay in the range of 189 to 191 °C.

`COc1cc(C)cc(C(=O)O)c1O` registered a melting point of 189 to 191 °C. On to `CCOC(=O)c1cc(Br)c(OC)c(S(=O)(=O)Cl)c1`, for which the melting point lay in the range of 62 to 64 °C.

`CC(C)(C)c1ccc(S(=O)(=O)CCN)cc1` showed a melting point of 46 to 48 °C. The value for `COCCOc1ccc(-n2nc(C)c(C(=O)O)n2)cc1` was 157 to 159 °C; that for `N#Cc1ccc(Cl)cc1NCC1CC1` was 52 to 54 °C. The compound `O=C1CS/C(=C/C(=O)C2CC2)N1` registered a melting point of 188 to 190 °C. `Nc1c(O)c(Cl)cc(Cl)c1Cl` returned a melting point of 119 to 121 °C. Then `CCc1cc2c(Cl)ncnc2s1`, with 55 to 57 °C; and `O=C1NC2(CCN(Cc3ccccc3)CC2)CO1`, with 164 to 166 °C; and `CCOC(=O)c1c(NC(N)=S)sc(C)c1C`, with 207 to 209 °C. The value for `O=C(O)c1c[nH]c2cc(Cl)ccc12` was 219 to 221 °C; that for `Nc1ccc(Cl)cc1C(=O)NCC1CC1` was 152 to 154 °C.

With `Cc1ccc2oc(=O)[nH]c2c1`, the melting point was 130 to 132 °C. The value for `COC(=O)c1cnn2c1CCCC2` was 64 to 66 °C; that for `Cc1cc(C(=O)O)c(C)n1-c1ccccc1Br` was 164 to 166 °C. In turn, `CCOC(=O)C1=C(C)NN=C(C)C1` gave a melting point of 99 to 101 °C. In the case of `Cc1cc(=O)oc2cc(OCC(=O)NN)ccc12`, the melting point was in the range of 179 to 181 °C. For the compound `Cc1cnn(-c2ccc(C(N)=O)cc2N)c1`, the melting point was in the range of 164 to 166 °C. Compound `CC(O)c1ccc(NC(=O)c2ccccc2)cc1` (stereo not given) displayed a melting point of 164 to 166 °C.

These data come from a melting point compilation (Tetko et al.).
